Laboratory results as given in patent publication US10774054B2, “FXR (NR1H4) modulating compounds” (Gilead Sciences, Inc., priority 2016, dated 2020).

Legend:
[1] = Metabolite ID assay in human liver microsomes; assay type: in vitro ADME; conditions: human liver microsomes 1 mg/mL, 1 mM NADPH, 5 μM substrate, 0, 30, 60 minutes
Description: The metabolic stability of Example 3 and Comparative Example 1 in human liver microsmoes was conducted according to the following procedure. Human liver microsomes (35 μL protein concentration 20 mg/mL), 350 μL of 100 mM potassium phosphate buffer (pH 7.4), 245 μL of deionized water and 0.7 μL of compound stock solution (5 mM) were combined in a 1.5 mL microcentrifuge tube. The tube was sealed and gently vortexed for 10 seconds, then placed in an Eppendorf ThermoMixer C and pre-warmed at 37° C. with shaking at 1100 rpm for 5 minutes.
NADPH solution (70 μL; 10 mM in water) was added while shaking, the mixture was aspirated several times with pipet, and 200 μL was removed to a fresh 1.5 mL microcentrifuge tube on ice containing 200 μL of cold acetonitrile. […]
The chilled aliquots were centrifuged at 14,300 rpm in a microcentrifuge for 10 minutes at 10° C., then the supernatant was transferred to a deepwell (1 mL) 96 well plate and sealed with a silicon mat. […] 20 μL samples were analyzed by UPLC-MS in order to identify and quantify the metabolites (Agilent 1290 G4220 binary pump UPLC with Agilent G1316 TCC column oven; Waters Acquity UPLC BEH C18 (130 Å pore size, 1.7 μm particle size, 2.1×50 mm) column held at 40° C.; Agilent 1290 G4212 DAD diode array with wavelength range 190 to 400 nm; Thermo Electron Orbitrap Elite mass spectrometer in FTMS positive mode). […]

[2] = Drug concentration in plasma of Cynomolgus monkey after oral dosing; assay type: in vivo; conditions: 300 mg/kg
Excerpt: Each dosing group consisted of three male Cynomolgus monkeys.

SMILES | formation of diol metabolite M1 [1] | maximal plasma AUC of the two compounds compared [2]
O=C(O)c1cnc(N2CC(O)(c3ccc(OCc4c(-c5c(Cl)cccc5Cl)noc4C4CC4)cc3Cl)C2)c(F)c1 [Comparative Example 1] | metabolized to a diol compound (M1) | 
O=C(O)c1cnc(N2CC(O)(c3ccc(OCc4c(-c5c(Cl)cc(F)cc5Cl)noc4C4CC4)cc3Cl)C2)c(F)c1 [Example 3, 6-(3-(2-chloro-4-((5-cyclopropyl-3-(2,6-dichloro-4-fluorophenyl)isoxazol-4-yl)methoxy)phenyl)-3-hydroxyazetidin-1-yl)-5-fluoronicotinic acid] |  | comparable
